From EP1276895B1, “METHOD FOR THE IDENTIFICATION OF ACTIVE SITE PROTEASE INACTIVATORS” (THE UNIVERSITY OF GEORGIA RESEARCH FOUNDATION, INC., priority 2000, dated 2001) come the findings set out here.

Format in all cases: biochemical
One experiment concerns the target Cathepsin B (cysteine) (Homo sapiens, UniProt P07858). As to the kind of experiment: Differential cleavage (selectivity) test, Cathepsin B. As to conditions: 0.4 M Citrate pH 6.1, 10 mM L-cysteine, substrate Z-ARR-AFC; for inhibition at 0.0003 µM: inhibitor 3 X 10^-10 M. Here is the method:
(§1) In order to perform the assay, the vehicle (for Step VI) or inhibitor (for Step IX) were incubated with the appropriate substrate in the correct assay buffer and allowed to equilibrate. Subsequently, the protease was added, and the assay was allowed to incubate for an appropriate time. The concentrations used in this experiment were as follows: Vehicle was set up at 4 X 10^-5 M in final assay buffer; Inhibitor was set up at 3 X 10^-10 M in the final assay buffer. Accordingly, the dosages employed should be the minimal amount of vehicle or inhibitor necessary to induce inhibition. […] Substrates were set up based upon the preferred substrate for cleavage of the particular enzyme.
(§2) Positive controls were set up similarly as described for test controls, except that solvent was added in substitution for the inhibitor or vehicle (in a volume equal to the volume of inhibitor or vehicle addition). All of the inhibitors and vehicles could be dissolved in dimethylsulfoxide (DMSO), and therefore, this was the solvent of choice. Negative controls were set up by adding the inhibitor or vehicle and the preferred substrates in a tube without the protease. All potential non-proteolytic liberation of AFC was therefore controlled for in this tube (a feature which also insured stability of the AFC substrates, since these substrates will freely liberate AFC when unstable).
(§3) All controls were set up in triplicate, and experiments were repeated a minimum of five times.
(§4) Percent inhibition was calculated as: % Inhibition = ((AFC positive for ʺSIʺ-AFC negative for ʺSIʺ)-(AFC test-AFC negative for ʺSIʺ))/(AFC positive for ʺSIʺ-AFC negative for ʺSIʺ) × 100 [formula] In this preliminary test, we employed the following human-derived enzymes (with indicated mechanistic class): Cathepsin B (cysteine), Cathepsin L (cysteine), Cathepsin H (cysteine), Cathepsin D (aspartic) Trypsin (serine), the purified Taenia solium cysteine protease, and the Taenia solium crude mix. Cathepsin B was prepared in an assay buffer of 10 mM L-cysteine in 0.4 M Citrate buffer, pH 6.1, using Z-ARR-AFC as the cleavage substrate. Cathepsin L was prepared in an assay buffer of 10 mM L-cysteine in 0.4 M Citrate buffer, pH 5.5, using Z-FR-AFC as the cleavage substrate. Cathepsin H was prepared in an assay buffer of 10 mM L-cysteine in 0.15 M PBS buffer, pH 6.8, using L-R-AFC as the cleavage substrate. Cathepsin D was prepared in an assay buffer of 0.15 M PBS, pH 7.1, using Z-RGFFP-AFC as the cleavage substrate. Trypsin was prepared in an assay buffer of 0.15 M PBS, pH 8.0, supplemented with 100 mM CaCl2 and with Z-R-AFC as the cleavage substrate. Enzyme was incubated so that it was at least 50 times less than the concentration of substrate in order to insure saturating conditions.

The target of a further experiment is Cathepsin L (cysteine) (Homo sapiens, UniProt P07711). Briefly: Differential cleavage (selectivity) test, Cathepsin L. As to conditions: 0.4 M Citrate pH 5.5, 10 mM L-cysteine, substrate Z-FR-AFC. Here is the method:
as §1, §2, §3, §4

A further experiment has as its system Taenia solium crude mix. Briefly: Competitor assay of vehicles against high Vmax substrate cocktails (Step III), crude mix. Conditions: for V Value: V = P * M. Here is the method:
Step III for a crude mix proceeds it would for a purified protease, except that Vm is used instead of kcat.
The experiment began with a competitor test between the noncleaved low Vmax substrates and the highest Vmax substrate, Z-Phe-Arg-AFC. Concentrations were varied between the low Vmax substrate and Z-Phe-Arg-AFC, as described above under "refinement of assay" until a relative inhibition profile was obtained.
Percent inhibition was calculated as: %Inhibition =; ((AFC positive for"Y"-AFC negative for"Y")-(AFC test-AFC negative for"Y")X100)/(AFC positive for "Y"-AFC negative for "Y") [formula]
One of the most intriguing findings in this experiment was that a highly similar inhibition pattern for the competitor assay was noted when the crude mix was employed as the source of the target protease. Although there were some variations in the effects of inhibitor dilution, the most highly ranked vehicles remained inhibitory consistently in comparison to the profile with the target protease. The relative profile and composition of the top tiers of vehicles was identical. Z-LLL-AFC, Z-LLY-AFC, Mu-LY-AFC, Boc-VPR-AFC, Z-SY-AFC, Z-RR-AFC, Z-FLF-AFC, Z-LGR-AFC consistently presented as the top eight vehicles (Fig. 5b), respectively, based upon their V values (Table 2). […] It was notable that the three vehicles had very similar V values. […] As was mentioned, this vehicle along with Z-LLL-AFC and Z-LLY-AFC, were consistently the most inhibitory vehicles. The V values of the most inhibitory vehicle series are shown below in Table 2. Again, a clear break between the first and second tier vehicles could be noted with the V value. Table 2. Vehicles and V value rankings.

In experiment [1] the test system is purified Taenia solium cysteine protease. As to the kind of experiment: Differential cleavage (selectivity) test, T. solium protease. Here is the method: as §1, §2, §3, §4
In a further experiment the target is T1, Cathepsin H (cysteine) (Homo sapiens, UniProt P09668).
T1 sequence (P09668 98-335): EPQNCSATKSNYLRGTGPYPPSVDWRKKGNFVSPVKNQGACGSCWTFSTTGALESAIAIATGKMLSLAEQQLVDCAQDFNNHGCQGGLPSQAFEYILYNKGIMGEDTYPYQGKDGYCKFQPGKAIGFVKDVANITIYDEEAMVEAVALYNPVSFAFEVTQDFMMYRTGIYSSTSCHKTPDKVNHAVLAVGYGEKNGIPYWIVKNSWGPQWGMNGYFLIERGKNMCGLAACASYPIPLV
As to the kind of experiment: Differential cleavage (selectivity) test, Cathepsin H. As to conditions: 0.15 M PBS pH 6.8, 10 mM L-cysteine, substrate L-R-AFC; for inhibition at 0.0003 µM: inhibitor 3 X 10^-10 M. Here is the method:
as §1, §2, §3, §4

For another experiment, the target named is Cathepsin D (aspartic) (Homo sapiens, UniProt P07339). Briefly: Differential cleavage (selectivity) test, Cathepsin D. Conditions: 0.15 M PBS pH 7.1, substrate Z-RGFFP-AFC; for inhibition at 0.0003 µM: inhibitor 3 X 10^-10 M. Here is the method:
as §1, §2, §3, §4

Setting [2] is: inhibitor 3 X 10^-10 M, 0.0003 µM.

Residues, ends and D or L forms follow the SMILES beside them. *: point of attachment. AFC = O=c1cc(C(F)(F)F)c2ccc(N*)cc2o1; Cbz = O=C(OCc1ccccc1)*; CH2F = FC*

Chain of Cathepsin L (cysteine) (P07711 114-333): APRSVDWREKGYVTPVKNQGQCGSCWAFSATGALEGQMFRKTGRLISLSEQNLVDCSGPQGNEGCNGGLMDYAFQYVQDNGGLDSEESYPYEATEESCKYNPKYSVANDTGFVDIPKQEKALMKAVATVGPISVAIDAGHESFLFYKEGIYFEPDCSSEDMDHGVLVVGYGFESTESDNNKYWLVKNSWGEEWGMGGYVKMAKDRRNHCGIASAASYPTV
Chain of Cathepsin D (aspartic) (P07339 65-412): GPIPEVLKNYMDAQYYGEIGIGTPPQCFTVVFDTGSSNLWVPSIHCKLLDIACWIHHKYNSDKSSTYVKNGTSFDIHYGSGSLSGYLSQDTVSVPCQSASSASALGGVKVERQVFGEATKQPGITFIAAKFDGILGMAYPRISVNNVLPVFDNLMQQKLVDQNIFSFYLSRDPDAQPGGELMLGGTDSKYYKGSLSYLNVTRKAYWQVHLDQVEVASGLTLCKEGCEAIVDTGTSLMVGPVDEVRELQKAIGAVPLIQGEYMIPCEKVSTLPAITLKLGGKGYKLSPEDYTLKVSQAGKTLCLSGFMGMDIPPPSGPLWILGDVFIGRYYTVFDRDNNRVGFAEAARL

A word on the inhibition: it is how much of the control response was suppressed. The term % Inhibition denotes the change of the read-out against control, counted positive when it falls. As to `CC(C)C[C@H](NC(=O)OCc1ccccc1)C(=O)N[C@@H](CC(C)C)C(=O)N[C@@H](Cc1ccc(O)cc1)C(=O)Nc1ccc2c(C(F)(F)F)cc(=O)oc2c1` [Z-LLY-AFC, Z-Leu-Leu-Tyr-AFC] (Cbz-Leu-Leu-Tyr-{AFC}), the inhibition at 40 µM at Cathepsin B (cysteine) (vehicle 4 X 10^-5 M), at Cathepsin L (cysteine) (vehicle 4 X 10^-5 M), against Cathepsin H (cysteine) (vehicle 4 X 10^-5 M) and against Cathepsin D (aspartic) (vehicle 4 X 10^-5 M) was 0% in each case. In the experiment with Taenia solium crude mix, the Tier is given as 1 (The first tier was composed of those vehicles, which produced inhibition greater than 50% when in the presence of the 1.4% cocktail). In addition, the “V Value” in the experiment on Taenia solium crude mix is on record as 0.55. In addition, in experiment [1] (vehicle 4 X 10^-5 M), the “% Inhibition” value is 70%.
In the case of `CC(C)C[C@H](NC(=O)OCc1ccccc1)C(=O)N[C@@H](CC(C)C)C(=O)N[C@@H](Cc1ccc(O)cc1)C(=O)CF` [Z-LLY-FMK, Z-Leu-Leu-Tyr-FMK] (Cbz-Leu-Leu-Tyr-CH2F), the inhibition at 0.0003 µM at Cathepsin B (cysteine), against Cathepsin L (cysteine) (inhibitor 3 X 10^-10 M), on Cathepsin H (cysteine) and at Cathepsin D (aspartic) was 0% each time. The figures for the “% Inhibition” value (on Cathepsin L (cysteine) (setting [2]); in experiment [1] (inhibitor 3 X 10^-10 M)) were “did not inhibit cathepsin L at all” and 62%, respectively.
For `CC(C)C[C@H](NC(=O)OCc1ccccc1)C(=O)N[C@@H](CC(C)C)C(=O)N[C@@H](CC(C)C)C(=O)Nc1ccc2c(C(F)(F)F)cc(=O)oc2c1` [Z-LLL-AFC, Z-Leu-Leu-Leu-AFC] (Cbz-Leu-Leu-Leu-{AFC}), the inhibition at 40 µM against Cathepsin B (cysteine) (vehicle 4 X 10^-5 M), on Cathepsin L (cysteine) (vehicle 4 X 10^-5 M), against Cathepsin H (cysteine) (vehicle 4 X 10^-5 M) and at Cathepsin D (aspartic) (vehicle 4 X 10^-5 M) was 0% each time. In addition, the Tier with Taenia solium crude mix is listed as 1 (The first tier was composed of those vehicles, which produced inhibition greater than 50% when in the presence of the 1.4% cocktail). Also, the “V Value” with Taenia solium crude mix was 0.611. Besides, the “% Inhibition” value in experiment [1] (vehicle 4 X 10^-5 M) worked out at 68%.
As for Mu-Leu-Tyr-AFC [Mu-LY-AFC], the “% Inhibition” value on Cathepsin B (cysteine) (vehicle 4 X 10^-5 M, 40 µM) was 0%; on Cathepsin L (cysteine) (vehicle 4 X 10^-5 M) it was 25%; at Cathepsin L (cysteine) (vehicle 4 X 10^-5 M, 40 µM), “subtle inhibition”; in experiment [1] (vehicle 4 X 10^-5 M), 75%; on Cathepsin H (cysteine) (vehicle 4 X 10^-5 M, 40 µM) it was 0%; on Cathepsin D (aspartic) (vehicle 4 X 10^-5 M, 40 µM), 0%. Also, the Tier with Taenia solium crude mix is 1 (The first tier was composed of those vehicles, which produced inhibition greater than 50% when in the presence of the 1.4% cocktail). Moreover, in the experiment on Taenia solium crude mix, the “V Value” was 0.45.
Take `CC(C)C[C@H](NC(=O)[C@H](CC(C)C)NC(=O)[C@H](CC(C)C)NC(=O)OCc1ccccc1)C(=O)CF` [Z-LLL-FMK, Z-Leu-Leu-Leu-fluoromethylketone] (Cbz-Leu-Leu-Leu-CH2F): the inhibition at 0.0003 µM was 0% against Cathepsin B (cysteine), 50% on Cathepsin L (cysteine) (inhibitor 3 X 10^-10 M), 0% at Cathepsin H (cysteine) and 0% at Cathepsin D (aspartic). For the same molecule, the entries for the “% Inhibition” value (on Cathepsin L (cysteine) (setting [2]); in experiment [1] (inhibitor 3 X 10^-10 M)) were “almost half of the inhibition of the Taenia solium cysteine protease” and 98%, respectively.
